Laboratory results reported in patent publication US9657059B2, “Immune system modulators” (Canimguide Therapeutics AB, priority 2013, dated 2017).

Tests used:
immune cells = assay: Binding of albumin fragments to immune cells on the Artificial Cell Surface column (ACS), MALDI-TOF; parameters: species or system human
Experimental: The existence of albumin sequences having neo-structures that bind to immune cells was identified using a human ex vivo model based on affinity chromatography over an “Artificial Cell Surface Column” (ACS). The effect of different albumin fragments on IL-2 induced proliferation of human immune cells (PBMCs) was analyzed in the ACS system (see Example 9). Briefly, PBMCs were cultured for seven days in the presence of IL-2 and the various synthetically prepared albumin fragments. Proliferation was measured as incorporation of ^3H thymidine during the final 18 hours.
Some of these fragments can have immunomodulatory activity similar to P3028, can bind to immune cells similar to P3028, and/or can bind to immunomodulatory antibodies that recognized P3028. […] Table 1 provides a listing of trypsin-generated fragments of albumin, which bind to immune cells in the ACS system, as detected by MALDI-TOF analysis.
[…] Again, the immune cell binding peptides were identified by comparing adsorbed and unadsorbed peptide solutions using the MALDI TOF technique.

[1] = tested on: Artificial Cell Surface (ACS): biotinylated cell surface proteins of PBMCs; assay: Adsorption of enzyme-fragmented dHSA peptides by artificial cell surface (ACS) column, MALDI-TOF; type: binding, human
Experimental: An artificial cell surface (ACS) was prepared by selectively biotinylating cell surface structures of PBMCs and after lysing the cells binding the biotinylated proteins to streptavidin columns (see Example 17 for further description of the ACS). The mixture of peptides obtained after trypsination was adsorbed by ACS and the binding peptides were identified by comparing adsorbed and unabsorbed peptide solutions using the MALDI TOF ms technique. Based on their degree of binding and their spatial relation to previously identified immunoregulatory structures, four new peptides were selected to be synthesized and investigated for their immunoregulatory activity, primarily the effect on the proliferative response to IL-2.
First, biotinylated cell surface proteins were prepared. Buffy coats generated from 450 ml blood each were collected from 4 healthy donors. Erythrocytes were removed by sedimentation on 2% dextran T500 solution (Amersham Pharmacia Biotech AB, Uppsala Sweden) in 0.9% NaCl. Mononuclear cells (PBMC) were then isolated by Ficoll-Paque Plus (GE Healthcare BioscienceAB Sweden) density gradient centrifugation. The PBMCs were then suspended in phosphate buffered saline (PBS) containing Ca and Mg (GIBCO) at a concentration of 10×10^6/ml. EZ Link Sulfo-NHS-biotin (Pierce USA) was added at a final concentration of 0.2 mg/ml and the mixture incubated on a shaker at room temperature for 10 min. Excess biotin was then removed by washing the PBMC in PBS. Biotinylated PBMC were then lysed by adding 1.0 ml ice-cold lysing buffer (50 mM Tris-HCL, pH 7.5, with 0.15 MNaCl, 5 mM MgCl2 containing 100 mM Octyl glucoside and 1 mM Phenylmethylsulfonyl fluoride) per 2×10^7 pelleted cells with gentle shaking, then incubated for 30 min. on ice. Debris was removed by centrifugation at 5000×g at 4° C. for 10 min and the supernatants were collected and pooled from all four donors. The lysate was then stored at −70° C. in polypropylene plastic tubes.
This amount of lysate corresponds to 36×10^7 mononuclear cells. It was added to a 1 ml Hitrap Streptavidin HP affinity column (Amersham Biosciences). To block possible remaining free biotin, 5 ml of 0.1 M glycine (Sigma) was added to the column. Unsaturated streptavidin on the column was then reacted with 150 ug biotin (Sigma) in binding buffer. The column was carefully washed with PBS and stored in PBS with 0.1% NaN3 at 4° C. until use.
27 ml biotinylated cell lysate in binding buffer (corresponding to 54×10^7 mononuclear cells) was added to 1.5 ml washed Streptavidin Sepharose HP (Amersham Biosciences). To block possible remaining free biotin, 25 ml of 0.1 M glycine (Sigma) was added to the Streptavidin Sepharose. Unsaturated streptavidin was then reacted with 225 ug biotin (Sigma) in binding buffer. The Streptavidin Sepharose was carefully washed in PBS. One ml of the biotinylated cell lysate coupled Streptavidin Sepharose was then packed in an empty column (Tricorn Empty High Performance Column, Amersham Bioscience) and washed with phosphate buffered saline (PBS) containing Ca^2+ and Mg^2+ (GIBCO).
Digestion with trypsin or ASP-N was performed as follows. Freeze dried dHSA (0.5 mg) was reconstituted in 25 mM NH4HCO3, pH 8, containing […] sequencing grade modified trypsin (Promega Corporation, WI) or […] Endoproteinase ASP-N(Sigma) and incubated at 37° C. overnight. To remove unfragmented albumin and enzyme, the sample was ultra filtered through an Amicon Ultra 4 (mw cut-off of 5000) or a Centriplus (mw cut-off 10000) centrifugal filter (Millipore AB, Solna, Sweden). The filtrate, containing fragmented dHSA without enzymes, was collected and diluted with PBS with Ca and Mg (GIBCO).
dHSA was trypsinated, and the mixture of peptides obtained after trypsination was adsorbed by ACS. Two ml of enzyme-fragmented dHSA in PBS, corresponding to a total of 0.2 mg protein, was passaged over the ACS column. […]

[2] = trypsin-generated albumin fragments, MALDI-TOF
[3] = trypsin-generated albumin fragments
[4] = Asp-N-generated fragments of denatured human serum albumin, MALDI TOF
[5] = Asp-N-generated albumin fragments

| Substance | Percent Absorbed (immune cells; [2]) | Percent Absorbed [1, 3] | Percent Absorbed (immune cells; [4]) | Percent Absorbed [1, 5] |
| --- | --- | --- | --- | --- |
| 194 (KYLYEIAR; listed as Homo sapiens) [compound 194] | 71% | 71% | – | – |
| 195 (KVPQVSTPTLVEVSR; listed as Homo sapiens) [compound 195] | 64% | 64% | – | – |
| 196 (VFDEFKPLVEEPQNLIK; listed as Homo sapiens) [compound 196] | 60% | 60% | – | – |
| 197 (VPQVSTPTLVEVSR; listed as Homo sapiens) [compound 197] | 59% | 59% | – | – |
| 198 (RPCFSALEVDETYVPK; listed as Homo sapiens) [compound 198] | 42% | 42% | – | – |
| 199 (FQNALLVR; listed as Homo sapiens) [compound 199] | 41% | 41% | – | – |
| 200 (SLHTLFGDK; listed as Homo sapiens) [compound 200] | 36% | 36% | – | – |
| 201 (LKECCEKPLLEK; listed as Homo sapiens) [compound 201] | 36% | 36% | – | – |
| 202 (LCTVATLR; listed as Homo sapiens) [compound 202] | 35% | 35% | – | – |
| 203 (YLYEIAR; listed as Homo sapiens) [compound 203] | 34% | 34% | – | – |
| 204 (CCAAADPHECYAK; listed as Homo sapiens) [compound 204] | 32% | 32% | – | – |
| 205 (AAFTECCQAADK; listed as Homo sapiens) [compound 205] | 29% | 29% | – | – |
| 206 (CCTESLVNR; listed as Homo sapiens) [compound 206] | 26% | 26% | – | – |
| 207 (QEPERNECFLQHK; listed as Homo sapiens) [compound 207] | 25% | 25% | – | – |
| 208 (AVMDDFAAFVEK; listed as Homo sapiens) [compound 208] | 23% | 23% | – | – |
| 209 (NECFLQHK; listed as Homo sapiens) [compound 209] | 22% | 77% | – | – |
| 210 (QNCELFEQLGEYK; listed as Homo sapiens) [compound 210] | 20% | 20% | – | – |
| 211 (QEPERNECFLQHK; listed as Homo sapiens) [compound 211] | 18% | 18% | – | – |
| 212 (VHTECCHGDLLECADDR; listed as Homo sapiens) [compound 212] | 13% | 13% | – | – |

| Substance | Percent Absorbed (immune cells; [2]) | Percent Absorbed [1, 3] | Percent Absorbed (immune cells; [4]) | Percent Absorbed [1, 5] |
| --- | --- | --- | --- | --- |
| 213 (FKDLGEENFK; listed as Homo sapiens) [compound 213] | 8% | 8% | – | – |
| 214 (YICENQDSISSK; listed as Homo sapiens) [compound 214] | 3% | 3% | – | – |
| 215 (LDELRDEGK; listed as Homo sapiens) [compound 215] | 2% | 2% | – | – |
| 216 (DDNPNLPR; listed as Homo sapiens) [compound 216] | 1% | 1% | – | – |
| 217 (DHVKLVNEVTEFAKTCVA; listed as Homo sapiens) [compound 217] | – | – | 100% | 100% |
| 218 (DDKETCFAEEGKKLVAASQAALGL; listed as Homo sapiens) [compound 218] | – | – | 100% | 100% |
| 219 (DRVTKCCTESLVNRRPCFSALEV; listed as Homo sapiens) [compound 219] | – | – | 87% | 87% |
| 220 (DETYVPKEFNAETFTHA; listed as Homo sapiens) [compound 220] | – | – | 86% | 86% |
| 221 (DSISSKLKECCEKPLLEKSHCIAEVEN; listed as Homo sapiens) [compound 221] | – | – | 65% | 65% |
| 222 (DKLCTVATLRETYGEM; listed as Homo sapiens) [compound 222] | – | – | 65% | 65% |
| 223 (YSVVLLLRLAKTYETTLEKCCAAADPHECYAKVF; listed as Homo sapiens) [compound 223] | – | – | 100% | 100% |
| 224 (KLCTVATLRETYGEMADCCAKQEPERNECFLQHK; listed as Homo sapiens) [compound 224] | – | – | 100% | 100% |
| 225 (ICTLSEKERQIKKQTALVELVKHKPKATKEQLKAVM; listed as Homo sapiens) [compound 225] | – | – | 100% | 100% |
| 226 (LAKYICENQDSISSKLKECCEKPLLEKHCIAEVEN; listed as Homo sapiens) [compound 226] | – | – | 100% | 100% |
| 227 (VFLGMFLYEYARRHPDYSVVLLLRLAKTYETTLEKCCAAA; listed as Homo sapiens) [compound 227] | – | – | 100% | 100% |
| 228 (LGEENFKALVLIAFAQYLQQCPFEDHVKLVNEVTEFAKTCVA; listed as Homo sapiens) [compound 228] | – | – | 100% | 100% |
| 229 (RVTKCCTESLVNRRPCFSALEVDETYVPKEFNAETFTFHA; listed as Homo sapiens) [compound 229] | – | – | 100% | 100% |
| 230 (YLSVVLNQLCVLHEKTPVSDRVTKCCCTESLVNRRPFSALEV; listed as Homo sapiens) [compound 230] | – | – | 37% | 37% |
